Measurements published in patent EP2138169B1, “Transdermal delivery system of hormones without penetration enhancers” (Bayer Intellectual Property GmbH, priority 2003, dated 2005).

Legend:
clinical = experiment: clinical; set-up: species or system women; conditions: female, human, in vivo
From the text: The effect on ovulation inhibition, serum drug concentrations and safety of a patch of the invention was investigated in a selected population of women. The study design was based on the requirements of the EMEA quideline for clinical studies with contraceptive steroids (Commitee for Proprietary Medicinal Products, CPMP/EWP 519/98).
Arcare MA-24A® is a polyisobutylene based adhesive from Adhesive Research.
The treatment phase includes a period of two menstrual cycles. The first treatment in the first cycle began one day after the volunteers started menstruating in this cycle by application of a patch. A total of three test patches were applied in intervals of 7 days between, such as application at days 1, 8 and 15 of the first cycle - each at different application sites- during each treatment cycle. Each patch was worn for 7 days, then replaced with a new patch to complete a total of 21 days of continuous use. This was followed by a 7-day treatment-free interval before the next treatment period started with a total of three patches applied, each applied with an interval of 7 days. If the patches were lost or became more than 40% detached, a new patch was applied.
The AUC was calculated according to the linear trapezoidal rule. […]
After incubation and centrifugation, the resultant precipitate was redissolved with NaOH. The assay has a lower limit of quantification of approx. 250 pg/ml.

[1] = cited from earlier work

Row | Structure (SMILES) | Cmax (clinical; Cmax (mean) of ethinyl estradiol (EE)) | Tmax (clinical; Tmax (mean) of ethinyl estradiol (EE)) | Maximal plasma levels ([1]; US 5,376,377, ethylene vinyl acrylate adhesive layer, Gestodene and ethinylestradiol) | maximal plasma levels of Gestodene ([1]; WO 92/07590, transdermal compositions with penetration enhancers, Gestodene and an estrogen)
1 | C#C[C@]1(O)CC[C@H]2[C@@H]3CCc4cc(O)ccc4[C@H]3CC[C@@]21C [Ethinylestradiol] | 0.0456 ng/mL | 48 h |  | 
2 | C#C[C@]1(O)C=C[C@H]2[C@@H]3CCC4=CC(=O)CC[C@@H]4[C@H]3CC[C@@]21CC [Gestodene, 13β-Ethyl-17α-ethynyl-17β-hydroxy-4,15-gonadien-3-one] |  |  | about 0.8 ng/ml | about 0.9 ng/ml
